Source: US6355616B1, “Derivative compounds derived from or based on bactericidal/permeability-increasing protein” (priority 1999, dated 2002)
Like-named read-outs stand apart in the source and are kept apart here. Non-standard residues stand in square brackets, D forms with d. Residues, ends and D or L forms follow the SMILES beside them. Aun = NCCCCCCCCCCC(=O)O

Experiments:
Candida albicans, SLU-1 = test: 28-day comparative survival efficacy study in mice systemically infected with Candida albicans; assay type: in vivo, male DBA/2 mice; conditions: for improvement in mortality compared with dextrose-treated controls: mice infected iv with C. albicans SLU-1, two doses less than 5 mg/kg, initial experiments (p>0.5)
Description: Derivatized peptide-based constructs are tested for activity upon oral administration (oral activity) in a 28-day comparative survival efficacy study in mice systemically infected with Candida albicans. Specifically, male DBA/2 mice (Charles River Laboratories) six weeks of age are dosed with 7.9×10^4 Candida albicans, SLU-1 in 100 μL intravenously via the tail vein in a single dosage on day zero (0). However, other routes of administration, including intraperitoneal (ip) and subcutaneous (sc) routes may be administered. Amphotericin B will provide complete protection at 0.5 mg/kg qod (100% survival). Mortality data will be subjected to Kaplan-Meier survival analysis. All treatment groups may be considered statistically significant vs. saline at p values <0.05.
Treatment begins immediately thereafter with 400 μL oral gavage of either 0.5% dextrose, or derivative compound in 0.5% dextrose at various dosage levels (e.g., 10 mg/kg or 20 mg/kg) according to a prescribed dosing regimen (e.g. every other day for a total of eight times). Amphotericin B (Fungizone®) is administered intravenously at 0.5 mg/kg as a positive control every other day for a total of eight times. Twice-day monitoring (once daily on weekends and holidays) for mortality is performed. The animals treated with antiflngal derivative compound show improvement in mortality compared with the dextrose-treated controls, preferably statistically significant improvement (p-value of […]).

[1] = tested on: Candida albicans designated CA-1, Strain SLU-1; assay type: cell-based
Description: In each broth microdilution assay screening procedure, a colony of Candida albicans designated CA-1, Strain SLU-1 that was received from the laboratories of G. Matuschak and A. Lechner, St. Louis University Hospital, St. Louis, Mo., where the strain was maintained, was inoculated into a tube containing 5 mL Sabouraud Dextrose broth (2% dextrose, 1% neopeptone) and incubated at 37° C. with shaking. The overnight culture was diluted 1:50 into 5 ml of fresh broth and incubated for 3 hours at 37° C. to exponential phase growth. Organisms were pelleted by centrifugation in a Beckman J-6M centrifuge for 5 minutes at 3000 rpm (1500×g) and the pellets were resuspended in 5 mL phosphate buffered saline (PBS) and the optical density (OD) at 570 nm was determined. On the basis of the determination that one OD unit equals 3×10^7 colony forming units/mL (CFU/mL), yeast cells were diluted to 5×10^3 CFU/mL in Sabouraud Dextrose broth (SBD).
Derivatized peptide sequences based on Domain III of BPI to be screened which were originally constituted in Dulbecco's-PBS, were two-fold serially diluted in SDB starting from a concentration of 128 μg/mL. Equal volumes (100 μL) of yeast suspension as prepared above and derivatized peptide solution were added to wells of a 96-well sterile, flat bottom, non-pyrogenic tissue culture microtiter plate (Costar, Cambridge, Mass.) to reach a final volume of 200 μL/well. The plate was incubated on a shaker at 37° C. for 24 hours. All assays were performed in triplicate. Following the incubation period, plates were read in an ELISA plate reader at 595 nm wavelength to determine the minimum inhibitory concentration (MIC), i.e., the lowest concentration required to reduce the optical density at 595 nm to below 0.1 OD.

Candida albicans SLU-1 = test: Radial diffusion assay; assay type: cell-based
Description: In the radial diffusion assay procedures, the CA-1 cultures and derivatized peptide solutions were prepared as in the broth microdilution assay procedure described above, i.e., CA-1 was grown to exponential phase in SDB. Ten (10) mL of molten underlayer agarose comprising 3% Sabouraud Dextrose broth, 1% agarose (Pharmacia, Piscataway, N.J.), 0.02% Tween 20, and 10 mM sodium phosphate at pH 7.4, was added to polystyrene tubes and maintained in a 56° C. water bath until the addition of yeast. Tubes were cooled to approximately 45° C., yeast were added to give a final concentration of 1×10^6 CFU/mL, and the tubes were mixed again by inverting. The contents were poured into leveled, square petri dishes and distributed evenly. […] A series of wells were punched into the hardened agarose using a sterile 3 mm punch attached to a vacuum apparatus to achieve a uniform, 3 mm diameter well.
Derivatized peptide sequences to be assayed were 2-fold serially diluted in 10 mM Dulbecco's PBS (D-PBS) starting from a concentration of approximately […]. Five μL of each dilution were added to each well and the plates were incubated at 37° C. for 3 hours to allow for complete diffusion of the test compounds. An overlayer of 10 mL of molten agarose comprising 6% Sabouraud Dextrose broth, 1% agarose, and 10 mM sodium phosphate, pH 7.4, (at approximately 45° C.) was then added and plates were incubated overnight at 37° C. Following this overnight incubation, a dilute Coomassie solution was poured into the plates and allowed to stain for 24 hours to enhance visualization of the zones.
Clear zones of growth inhibition around each well were measured with calipers. The actual area of growth inhibition (mm^2) was calculated by subtracting the area of the well. Table II below sets out the results of the radial diffusion assays for a series of tested peptide-based constructs in terms of the number of picomoles (pmol) of compound required to establish a 30 mm^2 area of growth inhibition of Candida albicans SLU-1 calculated by PROBIT analysis (e.g., calculated from regression of the linear portion of log-concentration dose-response curve, log pmol/well vs. net area of inhibition).

gram-negative bacteria = conditions: broad range of gram-negative bacteria; concentrations as low as; cited from earlier work
[2] = tested on: Candida albicans and Candida parapsilosis; conditions: 10^−6 M; pH 7.0 or 5.5; cited from earlier work
[3] = tested on: Staphylococcus aureus (four strains), Staphylococcus epidermidis, Streptococcus faecalis, Bacillus subtilis, Micrococcus lysodeikticus, and Listeria …; conditions: 160 μg/ml; pH of either 7.0 or 5.5; cited from earlier work
[4] = tested on: human, rabbit and sheep red blood cells and several human tumor cell lines; conditions: cited from earlier work
[5] = designated CA-1, Strain SLU-1, 24 h
[6] = 30 mm^2 area of growth inhibition, calculated by PROBIT analysis

Molecule	Broth Microdilution (MIC values in μg/mL C. albicans SLU1) [1, 5]	Radial Diffusion (pmol to achieve 30 mm^2 zone C. albicans SLU1) (Candida albicans SLU-1; [6])	improvement in mortality compared with dextrose-treated controls (Candida albicans, SLU-1)	further results
C[C@@H]1[C@H](O)[C@@H](C)/C=C/C=C/C=C/C=C/C=C/C=C/C=C/[C@H](O[C@@H]2O[C@H](C)[C@@H](O)[C@H](N)[C@@H]2O)C[C@@H]2O[C@](O)(C[C@@H](O)C[C@@H](O)[C@H](O)CC[C@@H](O)C[C@@H](O)CC(=O)O[C@H]1C)C[C@H](O)[C@H]2C(=O)O [Amphotericin B, reference compound]				survival (Candida albicans, SLU-1; 0.5 mg/kg qod, positive control, 'will provide complete protection'): 100%
CC[C@@H](C)[C@@H](NC(=O)[C@@H](CC(C)C)NC(=O)[C@@H](Cc1c[nH]c2ccccc12)NC(=O)[C@@H](CCCCN)NC(=O)CCCCCCCCCCN)C(=O)N[C@H](CCC(N)=O)C(=O)N[C@H](CC(C)C)C(=O)N[C@H](Cc1ccccc1)C(=O)N[C@H](Cc1c[nH]cn1)C(=O)N[C@H](CCCCN)C(=O)N[C@H](CCCCN)C(N)=O [XMP.496] (H-[Aun][dK][dW][dL][dI][dQ][dL][dF][dH][dK][dK]-NH2)	1 µg/mL	434 pmol	did not exhibit statistically significant improvement	
CC[C@@H](C)[C@@H](NC(=O)[C@@H](CC(C)C)NC(=O)[C@@H](Cc1c[nH]c2ccccc12)NC(=O)[C@@H](CCCCN)NC(=O)c1c[nH]cn1)C(=O)N[C@H](CCC(N)=O)C(=O)N[C@H](CC(C)C)C(=O)N[C@H](Cc1ccccc1)C(=O)N[C@H](Cc1c[nH]cn1)C(=O)N[C@H](CCCCN)C(=O)N[C@H](CCCCN)C(N)=O [XMP.500]			did not exhibit statistically significant improvement	
CC[C@@H](C)[C@@H](NC(=O)[C@@H](CC(C)C)NC(=O)[C@@H](Cc1c[nH]c2ccccc12)NC(=O)[C@@H](CCCCN)NC(=O)CCCC[C@@H]1SC[C@@H]2NC(=O)N[C@@H]21)C(=O)N[C@H](CCC(N)=O)C(=O)N[C@H](CC(C)C)C(=O)N[C@H](Cc1ccccc1)C(=O)N[C@H](Cc1c[nH]cn1)C(=O)N[C@H](CCCCN)C(=O)N[C@H](CCCCN)C(N)=O [XMP.519]	1 µg/mL	170 pmol	did not exhibit statistically significant improvement	
CC[C@@H](C)[C@@H](NC(=O)[C@@H](CC(C)C)NC(=O)[C@@H](Cc1c[nH]c2ccccc12)NC(=O)[C@@H](CCCCN)NC(=O)c1ccc2c(c1)-c1ccccc1-2)C(=O)N[C@H](CCC(N)=O)C(=O)N[C@H](CC(C)C)C(=O)N[C@H](Cc1ccccc1)C(=O)N[C@H](Cc1c[nH]cn1)C(=O)N[C@H](CCCCN)C(=O)N[C@H](CCCCN)C(N)=O [XMP.534]	4 µg/mL	>3,371 pmol	did not exhibit statistically significant improvement	
XMP.503: R1 = pyridine carbonyl, R2 = R3 = H (KWLIQLFHKK; XMP.503; Position 1 is derivatized at the alpha-amino with: pyridine carbonyl; Positions 1-10 are D-Amino Acids; AMIDATION=The C-terminus is Amidated)			did not exhibit statistically significant improvement	
XMP.535: peptide-based construct; derivatization not given in Table I (KWLIQLFHKK; XMP.535; Position 1 is derivatized at the alpha-amino with: anthraquinone carbonyl; Positions 1-10 are D-Amino Acids; AMIDATION=The C-terminus is Amidated)				Broth Microdilution (MIC values in μg/mL C. albicans SLU1) ([1]; C. albicans SLU1): b (no detectable activity up to 5 μg/well); Radial Diffusion (pmol to achieve 30 mm^2 zone C. albicans SLU1) (Candida albicans SLU-1): b (no detectable activity up to 5 μg/well)
BPI: protein isolated from the granules of mammalian polymorphonuclear leukocytes (protein, UniProt P17213 32-487, looked up) Bactericidal …: VNPGVVVRISQKGLDYASQQGTAALQKELKRIKIPDYSDSFKIKHLGKGHYSFYSMDIREFQLPSSQISMVPNVGLKFSISNANIKISGKWKAQKRFLKMSGNFDLSIEGMSISADLKLGSNPTSGKPTITCSSCSSHINSVHVHISKSKVGWLIQLFHKKIESALRNKMNSQVCEKVTNSVSSELQPYFQTLPVMTKIDSVAGINYGLVAPPATTAETLDVQMKGEFYSENHHNPPPFAPPVMEFPAAHDRMVYLGLSDYFFNTAGLVYQEAGVLKMTLRDDMIPKESKFRLTTKFFGTFLPEVAKKFPNMKIQIHVSASTPPHLSVQPTGLTFYPAVDVQAFAVLPNSSLASLFLIGMHTTGSMEVSAESNRLVGELKLDRLLLELKHSNIGPFPVELLQDIMNYIVPILVLPRVNEKLQKGFPLPTPARVQLYNVVLQPHQNFLLFGADVVYK				concentration exhibiting anti-bacterial activity (gram-negative bacteria): 10^−8 to 10^−9 M; toxic effect on fungi [2]: no toxic effect; toxic effect on gram-positive organisms [3]: no toxic effect; toxicity to higher eukaryotic cells [4]: non-toxic
